Measured values reported in US20090209460A1, “COMPOSITIONS AND METHODS FOR TREATING OBESITY AND RELATED METABOLIC DISORDERS” (Amylin Pharmaceuticals, Inc., priority 2005, published 2009).
Non-standard residues stand in square brackets, D forms with d. Residues, ends and D or L forms follow the SMILES beside them. No end group written: not given here. beta turn mimic B = not defined here

What was measured:
NIH/Swiss mice = experiment: acute food intake assay, lean overnight-fasted NIH/Swiss mice, intraperitoneal injection; assay type: in vivo, mouse; settings: for Food Intake Inhibition: mouse assay, dose of 200 mg/kg, measured at 60 minutes
Experimental: The effect of NMX Peptides, FNX Peptides or NMX Receptor agonists on food intake when systemically administered was investigated using an acute food intake assay. This assay measured food consumption in lean subjects. Lean, group-housed, overnight-fasted NIH/Swiss mice. All in vivo tests were performed with peripheral injections of peptide. […] The dose-response data are presented herein. The protocol is described below. Female NIH/Swiss mice (8-24 weeks old) were group housed with a 12:12 hour light:dark cycle, with lights on at 0300. Water and a standard pelleted mouse chow diet are available ad libitum, except as noted. Animals are fasted starting at approximately 1530 hrs, 1 day prior to experiment. At time=0 min, all animals are given an intraperitoneal injection of vehicle or polypeptide in a volume of 200 uL/mouse and immediately given a pre-weighed amount (10-15 g) of the standard chow. Food is removed and weighed at 30, 60, and 120 minutes to determine the amount of food consumed. The effects of treatment on food intake are expressed as % change relative to control.

[1] = brush border membrane (BBM) stability assay; assay type: in vitro ADME, human; settings: for remaining at 5 h: brush border membrane extract (e.g. kidney), percent compound remaining after a 5 hour incubation, human brush border membrane assay, read-out: hBBM
Experimental: Some exemplary NMX Peptides and FNX Peptides were tested for stability in a brush border membrane (BBM) assay as described herein. To determine the enzymatic stability of peptide hormones peptides are incubated with a preparation of human brush border membranes extract (e.g., kidney), and the stability of the peptide is determined by measuring concentration of the intact peptide at specific intervals. The brush border membrane extract contains dipeptidyl peptidase IV (DPP-IV), neutral endopeptidases, peptidyl-dipeptidase A, carboxypeptidases and aminopeptidases. These are the primary enzymes that degrade peptides in vivo and are found in the kidneys, liver, lungs and pancreas. Resistance against these human proteases would increase peptide half-life. In the BBM assay test peptide was subjected to digestion over a period of five (5) hours with human brush border membrane extracts, e.g. kidney, at 37° C. At desired timepoints digestion was stopped by addition of quench solution, typically 50% ACN, 1% FA. After centrifugation to remove membrane debris, supernatant was subjected to mass spectrometry using a selected ion scan for the intact molecule of interest. Values are expressed as a percent of stable. A value of at least 80 or greater is regarded as an extremely stable molecule. A value of at least 70 or greater is a molecule with significant stability.

[2] = body weight and food intake in mice with diet induced obesity (mouse DIO), osmotic pump; assay type: in vivo; settings: mouse DIO
Experimental: The effect of FN38 and related compounds on body weight and food intake in obese subjects was investigated. Mice having diet induced obesity (DIO) were used. All in vivo tests were performed with peripheral injections of peptide. […] 4-week-old male C57BL/6 mice were group housed with water and a standard pelleted mouse chow diet available ad libitum, except as noted, and were maintained on a on a high fat diet (58% kcal from fat) for 4 weeks prior to the experiment. At the end of fattening period, osmotic pumps were implanted interscapularly under anesthesia. Mice received pumps continuously delivering vehicle (50% DMSO in water or saline) or polypeptide at the dose indicated. Food intake and body weight measurements were obtained weekly.

[3] = test system: mice with diet induced obesity (mouse DIO); experiment: cumulative food intake in mouse DIO after IP injection (FIGS. 6 and 7); assay type: in vivo; settings: injected IP at t=0; measured at 30, 60, 120 and 180 min
Experimental: The activities of the following compounds are shown: A, [MimicB36] FN38; B, [His37] FN38; C,
[His35] FN38; D, [Phe33] FN38; E, [Val33] FN38; F, Des-(Ser6,Lys7,Thr8,Gln9) FN38; G, Des-Val16,Val17-FN38; H, [Phe31] FN38; I, Des-(Val16,Val17,Phe24,Ala25,Ser26,Gln27) FN38; J, Des-(Phe1,Leu2,Phe3,His4)FN38; and K, Des-(Phe24,Ala25,Ser26,Gln27)-FN38. […] Points represent mean±sd of n=4 cages (3 mice/cage). Peptide was injected IP at t=0. Food was introduced immediately after injection and amount consumed measured at t=30, 60, 120, and 180 min. In the figure, * p<0.05 vs. vehicle control; ANOVA, Dunnett's test.

Row | Compound | Food Intake Inhibition (NIH/Swiss mice) | remaining at 5 h [1] | cumulative food intake in mouse DIO (FIGS. 6A, 6B, 7A, 7B) [3] | further results
1 | CC[C@H](C)[C@H](NC(=O)[C@@H](NC(=O)CNC(=O)CNC(=O)[C@@H]1CCCN1C(=O)[C@@H](NC(=O)[C@H](CCC(N)=O)NC(=O)[C@@H](NC(=O)[C@H](CCC(=O)O)NC(=O)[C@H](CCC(=O)O)NC(=O)[C@H](CC(=O)O)NC(=O)[C@H](CO)NC(=O)[C@H](CC(N)=O)NC(=O)[C@H](CO)NC(=O)[C@H](CCCCN)NC(=O)CNC(=O)[C@H](CC(C)C)NC(=O)[C@H](CCCCN)NC(=O)[C@H](CCC(N)=O)NC(=O)[C@@H](NC(=O)[C@H](CCCCN)NC(=O)[C@H](CO)NC(=O)[C@H](Cc1ccc(O)cc1)NC(=O)[C@H](Cc1c[nH]cn1)NC(=O)[C@H](Cc1ccccc1)NC(=O)[C@H](CC(C)C)NC(=O)[C@@H](N)Cc1ccccc1)[C@@H](C)O)C(C)C)C(C)C)C(C)C)C(=O)N[C@@H](CO)C(=O)N[C@@H](CC(N)=O)C(=O)NCC(=O)N[C@@H](Cc1ccc(O)cc1)C(=O)N[C@@H](Cc1ccccc1)C(=O)N[C@@H](CC(C)C)C(=O)N[C@@H](Cc1ccccc1)C(=O)N[C@@H](CCCNC(=N)N)C(=O)N1CCC[C@H]1C(=O)N[C@@H](CCCNC(=N)N)C(=O)N[C@@H](CC(N)=O)C(N)=O [Compound 165063] (H-FLFHYSKTQKLGKSNSDEEVQVPGGVISNGYFLFRPRN-NH2; N-terminus assumed) | −88% | 73% |  | reduction of food intake (NIH/Swiss mice; administered systemically (i.p. to mice), dose and time not stated): at least 89%; FI (60′, 200) (NIH/Swiss mice; food intake, % change relative to control, 60 min, dose 200): −88%; ED50 at t = 60 (NIH/Swiss mice; food intake, t = 60): 6 nmol/kg; BBM ([1]; percent of stable, human brush border membrane extracts, five hours, 37° C.): 73%; d 7 BWt loss ([2]; day 7): 5.1%; d 14 BWt loss ([2]; day 14): 8.6%
2 | CC(C)C[C@H](NC(=O)[C@H](CCCCN)NC(=O)[C@H](CCC(N)=O)NC(=O)[C@@H](NC(=O)[C@H](CCCCN)NC(=O)[C@H](CO)NC(=O)[C@H](Cc1ccc(O)cc1)NC(=O)[C@H](Cc1c[nH]cn1)NC(=O)[C@H](Cc1ccccc1)NC(=O)[C@H](CC(C)C)NC(=O)[C@@H](N)Cc1ccccc1)[C@@H](C)O)C(=O)NCC(=O)N[C@@H](CCCCN)C(=O)N[C@@H](CO)C(=O)N[C@@H](CC(N)=O)C(=O)N[C@H](C(=O)N[C@H](C(=O)N[C@@H](CCC(=O)O)C(=O)N[C@@H](CCC(=O)O)C(=O)N[C@@H](CC(C)C)C(=O)N[C@@H](CCC(N)=O)C(=O)N[C@@H](CO)C(=O)N1CCC[C@H]1C(=O)N[C@@H](Cc1ccccc1)C(=O)N[C@@H](C)C(=O)N[C@@H](CO)C(=O)N[C@@H](CCC(N)=O)C(=O)N[C@@H](CO)C(=O)N[C@@H](CCCNC(=N)N)C(=O)NCC(=O)N[C@@H](Cc1ccc(O)cc1)C(=O)N[C@@H](Cc1ccccc1)C(=O)N[C@@H](CC(C)C)C(=O)N[C@@H](Cc1ccccc1)C(=O)N[C@@H](CCCNC(=N)N)C(=O)N1CCC[C@H]1C(=O)N[C@@H](Cc1c[nH]cn1)C(=O)N[C@@H](CC(N)=O)C(N)=O)C(C)C)C(C)C [Compound B] (H-FLFHYSKTQKLGKSNVVEELQSPFASQSRGYFLFRPHN-NH2; N-terminus assumed) |  |  | either not active or weakly active | 
3 | CC(C)C[C@H](NC(=O)[C@H](CCCCN)NC(=O)[C@H](CCC(N)=O)NC(=O)[C@@H](NC(=O)[C@H](CCCCN)NC(=O)[C@H](CO)NC(=O)[C@H](Cc1ccc(O)cc1)NC(=O)[C@H](Cc1c[nH]cn1)NC(=O)[C@H](Cc1ccccc1)NC(=O)[C@H](CC(C)C)NC(=O)[C@@H](N)Cc1ccccc1)[C@@H](C)O)C(=O)NCC(=O)N[C@@H](CCCCN)C(=O)N[C@@H](CO)C(=O)N[C@@H](CC(N)=O)C(=O)N[C@H](C(=O)N[C@H](C(=O)N[C@@H](CCC(=O)O)C(=O)N[C@@H](CCC(=O)O)C(=O)N[C@@H](CC(C)C)C(=O)N[C@@H](CCC(N)=O)C(=O)N[C@@H](CO)C(=O)N1CCC[C@H]1C(=O)N[C@@H](Cc1ccccc1)C(=O)N[C@@H](C)C(=O)N[C@@H](CO)C(=O)N[C@@H](CCC(N)=O)C(=O)N[C@@H](CO)C(=O)N[C@@H](CCCNC(=N)N)C(=O)NCC(=O)N[C@@H](Cc1ccc(O)cc1)C(=O)N[C@@H](Cc1ccccc1)C(=O)N[C@@H](CC(C)C)C(=O)N[C@@H](Cc1ccccc1)C(=O)N[C@@H](Cc1c[nH]cn1)C(=O)N1CCC[C@H]1C(=O)N[C@@H](CCCNC(=N)N)C(=O)N[C@@H](CC(N)=O)C(N)=O)C(C)C)C(C)C [Compound C] (H-FLFHYSKTQKLGKSNVVEELQSPFASQSRGYFLFHPRN-NH2; N-terminus assumed) |  |  | either not active or weakly active | 
4 | CC(C)C[C@H](NC(=O)[C@H](Cc1ccccc1)NC(=O)[C@H](Cc1ccc(O)cc1)NC(=O)CNC(=O)[C@H](CCCNC(=N)N)NC(=O)[C@H](CO)NC(=O)[C@H](CCC(N)=O)NC(=O)[C@H](CO)NC(=O)[C@H](C)NC(=O)[C@H](Cc1ccccc1)NC(=O)[C@H](CO)NC(=O)[C@H](Cc1ccc(O)cc1)NC(=O)[C@H](Cc1c[nH]cn1)NC(=O)[C@H](Cc1ccccc1)NC(=O)[C@H](CC(C)C)NC(=O)[C@@H](N)Cc1ccccc1)C(=O)N[C@@H](Cc1ccccc1)C(=O)N[C@@H](CCCNC(=N)N)C(=O)N1CCC[C@H]1C(=O)N[C@@H](CCCNC(=N)N)C(=O)N[C@@H](CC(N)=O)C(N)=O [Des-(Lys7-Pro23)FN38] (H-FLFHYSFASQSRGYFLFRPRN-NH2; N-terminus assumed) | −26% | 95% | reduction of cumulative food intake | 
5 | CC(C)C[C@H](NC(=O)[C@H](CCCCN)NC(=O)[C@H](CCC(N)=O)NC(=O)[C@@H](NC(=O)[C@H](CCCCN)NC(=O)[C@H](CO)NC(=O)[C@H](Cc1ccc(O)cc1)NC(=O)[C@H](Cc1c[nH]cn1)NC(=O)[C@H](Cc1ccccc1)NC(=O)[C@H](CC(C)C)NC(=O)[C@@H](N)Cc1ccccc1)[C@@H](C)O)C(=O)NCC(=O)N[C@@H](CCCCN)C(=O)N[C@@H](CO)C(=O)N[C@@H](CC(N)=O)C(=O)N[C@@H](CCC(=O)O)C(=O)N[C@@H](CCC(=O)O)C(=O)N[C@@H](CC(C)C)C(=O)N[C@@H](CCC(N)=O)C(=O)N[C@@H](CO)C(=O)N1CCC[C@H]1C(=O)N[C@@H](CO)C(=O)N[C@@H](CCCNC(=N)N)C(=O)NCC(=O)N[C@@H](Cc1ccc(O)cc1)C(=O)N[C@@H](Cc1ccccc1)C(=O)N[C@@H](CC(C)C)C(=O)N[C@@H](Cc1ccccc1)C(=O)N[C@@H](CCCCN)C(=O)N1CCC[C@H]1C(=O)N[C@@H](CCCNC(=N)N)C(=O)N[C@@H](CC(N)=O)C(N)=O [Des-(Val16,Val17,Phe24-Gln27)[K35]FN38] (H-FLFHYSKTQKLGKSNEELQSPSRGYFLFKPRN-NH2; N-terminus assumed) | −54% | 76% | reduction of cumulative food intake | 
6 | FLFHYSKTQKLGKSNVVEELQSPFASQSRGYFLFR(beta turn mimic B)RN-NH2 (FLFHYSKTQKLGKSNVVEELQSPFASQSRGYFLFR[beta turn mimic B]RN-NH2; reading uncertain) [Compound A] |  |  | either not active or weakly active | 
